Data set [1] addresses T1, GTPase KRas (Homo sapiens, UniProt P01116, G12C). Description: Inhibition of KRAS G12C mutant in human HCC1171 cells. In kind it is cell-based.
In data set [2] the target is T1, GTPase KRas. The data set can be described thus: Inhibition of KRAS G12C mutant (unknown origin) by HTRF method.
Data set [3] deals with GTPase KRas (Homo sapiens), P01116 [G12C]. The data set can be described thus: Inhibition of his tagged KRAS G12C mutant (1 to 169 residues) (unknown origin) by RapidFire mass spectrometric analysis. The settings on record: concentration not given here.
Data set [4] can be described thus: Stability in dog whole blood assessed as half life by LC/MS/MS analysis. In kind it is ADME, tissue-based, Canis lupus familiaris.
Data set [5] is described as follows: Stability in monkey whole blood assessed as half life by LC/MS/MS analysis. In kind it is ADME, tissue-based, Macaca mulatta. The settings on record: rhesus monkey.
The subject of data set [6] is GTPase KRas (Homo sapiens), P01116 [G12C]. Description: Binding affinity to KRAS G12C mutant (unknown origin) measured after 3 mins.
Data set [7] has the same test system. The data set can be described thus: Inhibition of KRAS G12C mutant (1 to 169 residues) (unknown origin) at 5 uM incubated for 1 min by Mass spectrometry reactivity assay.
The next data set relates to A-375. The data set can be described thus: Antiproliferative activity against human A-375 cells by CellTiter-Glo assay. Type of data set: functional, cell-based. Background: ATP-based viability assays read luminescence as a measure of living cells.
A further data set deals with MIA PaCa-2. Description: Antiproliferative activity against human MIA PaCa-2 cells harbouring KRAS G12C mutant by CellTiter-Glo assay. Type of data set: functional, cell-based.
Data set [8] has as its system NCI-H358. Description: Antiproliferative activity against human NCI-H358 cells harbouring KRAS G12C mutant by CellTiter-Glo assay. In kind it is functional, cell-based.
Data set [9] concerns GTPase KRas (Homo sapiens), P01116 [G12C]. Description: Inhibition of KRAS G12C mutant (unknown origin) at 5 uM relative to control.
For data set [10], the target named is T1, GTPase KRas. The data set can be described thus: Inhibition of KRAS G12C mutant in human NCI-H358 cells measured after 6 hrs. Type of data set: cell-based.
The target in data set [11] is T1, GTPase KRas. The data set can be described thus: Inhibition of KRAS G12C mutant in human MIA PaCa-2 cells measured after 6 hrs. In kind it is cell-based.
In data set [12] the test system is NCI-H358. The data set can be described thus: Antitumor activity against human NCI-H358 cells xenografted in Balb/c nude mouse assessed as tumor growth inhibition at 5 mg/kg measured after 27 days by vernier caliper based assay relative to control. Type of data set: functional. The settings on record: NCI-H358, 648 h, time 27 day, read-out: TGI. A general note: Xenograft models place foreign cells or tissue in a host animal.

Data set [13] deals with NCI-H358. Description: Antitumor activity against human NCI-H358 cells xenografted in Balb/c nude mouse assessed as tumor growth inhibition at 15 mg/kg measured after 27 days by vernier caliper based assay relative to control. The settings on record: NCI-H358, 648 h, time 27 day, read-out: TGI. Type of data set: functional.
Data set [14] addresses T1, GTPase KRas. The data set can be described thus: Inhibition of KRAS G12C mutant in human NCI-H2030 cells. In kind it is cell-based.
In data set [15] the test system is von Hippel-Lindau disease tumor suppressor/GTPase KRas (Homo sapiens), P01116+P40337 [G12C]. The data set can be described thus: PROTAC activity at VHL/KRAS G12C mutant in human NCI-H2030 cells assessed as induction of KRAS G12C degradation relative to control. Type of data set: cell-based.
In data set [16] the target is T1, GTPase KRas. The data set can be described thus: Inhibition of KRAS G12C mutant in human NCI-H23 cells. In kind it is cell-based.
For data set [17], the target named is T2, von Hippel-Lindau disease tumor suppressor/GTPase KRas (Homo sapiens, UniProt P01116+P40337, G12C). Description: PROTAC activity at VHL/KRAS G12C mutant in human NCI-H23 cells assessed as induction of KRAS G12C degradation. In kind it is cell-based.
Data set [18] has as its target T2, von Hippel-Lindau disease tumor suppressor/GTPase KRas. Description: PROTAC activity at VHL/KRAS G12C mutant in human NCI-H2030 cells assessed as induction of KRAS G12C degradation. Type of data set: cell-based.
The subject of data set [19] is von Hippel-Lindau disease tumor suppressor/GTPase KRas (Homo sapiens), P01116+P40337 [G12C]. The data set can be described thus: PROTAC activity at VHL/KRAS G12C mutant in human NCI-H23 cells assessed as induction of KRAS G12C degradation relative to control. Type of data set: cell-based.
The subject of data set [20] is GTPase KRas (Homo sapiens), P01116 [G12C]. The data set can be described thus: Inhibition of KRAS G12C mutant (unknown origin). The following applies: concentration not given here.
Data set [21] has the same test system. The data set can be described thus: Inhibition of KRAS G12C mutant (unknown origin) at 10 uM relative to control.

pEC50, pIC50: −log10 of the molar value.

Consider `C=CC(=O)N1CCN(c2nc(OC[C@@H]3CCCN3C)nc3c2C[C@@H](C)C(c2cc(O)cc4ccccc24)C3)[C@@H](C)C1` (stereo partly drawn), for which the figures for the pIC50 at GTPase KRas [1] and on GTPase KRas [2] were above 8.22 and above 8.00, respectively.

Take `C=CC(=O)N1CCN(c2c3c(nc4c(F)c(-c5c(O)cccc5F)c(Cl)cc24)NC(=O)NC3)CC1`: in data set [3], the inhibition (in general, the change of the read-out against control, counted positive when it falls) is above 50%.

Turning to `C=CC(=O)N1C[C@H](C)N(c2nc(OCCN3CC(F)(F)C3)nc3c(F)c(-c4c(O)cccc4F)c(Cl)cc23)C[C@H]1C`, the half-life (in general, the time in which the quantity being followed falls by half) in data set [4] was 3 h; in [5], 7.8 h. The same compound gave an Activity in data set [6] above 90%.

In [7], `C=CC(=O)N1CCN(c2nc(O[C@@H]3CN(C)C[C@H]3OC)nc3c(Oc4c(Cl)c(Cl)cc5[nH]ncc45)nc(Cl)cc23)CC1` displayed an inhibition of 82%.

As for `C=CC(=O)N1CCN(c2nc(Oc3cccc4c3CCN(C)C4)nc3c(Oc4c(Cl)c(F)cc5[nH]ncc45)nccc23)CC1`, the inhibition in [7] turned out to be 80%.

Regarding `C=CC(=O)N1CCN(c2ncnc3c(=O)n(-c4c(O)cccc4F)c(C(F)(F)F)cc23)CC1`, the negative-log IC50 (pIC50) (commonly −log10 of the IC50, conventionally taken in molar units) with A-375 is below 4.30; with MIA PaCa-2, 5.19; in the data set with NCI-H358 [8], 5.27.

In the case of `C=CC(=O)N1CCN(c2nc(N3CC(N(C)C)C3)nc3c2C[C@@H](C)C(c2c(C)c(Cl)cc4[nH]ncc24)C3)CC1` (stereo partly drawn), the inhibition in [9] is 78%. Further, the values for the pIC50 against GTPase KRas [10] and against GTPase KRas [11] were 6.99 and 7.17, respectively.

Take `C=CC(=O)N1CCN(c2ncnc3c(=O)n(-c4c(N)c(Cl)cc(Cl)c4F)c(C(F)(F)F)cc23)CC1`: the inhibition in vivo at 5 mg/kg with NCI-H358 [12] turned out to be 107%. Also, the pIC50 in the data set with A-375 is 5.14; in the data set on MIA PaCa-2, 4.15. Moreover, the inhibition in vivo at 15 mg/kg in the data set with NCI-H358 [13] is 116%.

In the case of `C=CC(=O)N1C[C@H](C)N(c2nc(N3CC(N(C)C)C3)nc3c(F)c(-c4c(C)ccc5cn[nH]c45)c(Cl)cc23)C[C@H]1C`, the half-life in data set [4] was 5.95 h; in data set [5], 3.9 h. In addition, the Activity in data set [6] is above 90%.

Take `C=C(F)C(=O)N1CCN(c2nc(CO[C@@H]3CCCN3CCC(=O)NCCOCCOCCC(=O)N[C@@H](C(=O)N3[C@H](O)CC[C@H]3C(=O)NCc3ccc(-c4scnc4C)cc3)C(C)(C)C)nc3c2CCN(c2cccc4cccc(Cl)c24)C3)C[C@@H]1CC#N`: the pEC50 (in general, −log10 of the EC50, conventionally taken in molar units) on GTPase KRas [14] was below 5.00; at GTPase KRas [16], 5.89. In addition, the Emax – broadly, the maximal effect, on the per cent scale that the assay sets – in data set [15] came to 30%.

On to `C=C(F)C(=O)N1CCN(c2nc(CO[C@@H]3CCCN3CCCOCCC(=O)N[C@@H](C(=O)C3N[C@H](C(=O)NCc4ccc(-c5scnc5C)cc4)C[C@H]3O)C(C)(C)C)nc3c2CCN(c2cccc4cccc(Cl)c24)C3)C[C@@H]1CC#N` (stereo partly drawn), for which the DC50 (in general, the concentration giving 50% degradation) came out at 760 nM in data set [17] and 590 nM in [18]. Moreover, the maximum response (Emax) in data set [19] stood at 90%; in data set [15] it was 75%. The pEC50 was 5.42 on GTPase KRas [14] and 5.54 on GTPase KRas [16].

On to `C=CC(=O)N1CCN(c2nc(OCCN3CCCC3=O)nc3c(F)c(-c4c(O)cccc4F)c(Cl)cc23)CC1`, for which the inhibition in [20] is above 90%.

As for `C=CC(=O)N1CCN(c2ncnc3c(F)c(-c4c(O)cccc4F)c(Cl)cc23)CC1`, in the data set on NCI-H358 [13], the inhibition in vivo at 15 mg/kg was 52%.

For the compound `C=CC(=O)N1CCN(c2nc(N3CC(N(C)C)C3)nc3c2C[C@@H](C)[C@H](c2c(Cl)c(C)cc4[nH]ccc24)C3)C[C@H]1C`, the inhibition in data set [21] was 80%. Moreover, the pIC50 against GTPase KRas [10] was 7.19; at GTPase KRas [11], 7.22.

As to `C=CC(=O)N1CCN(c2nc(OCCN3CC(F)(F)C3)nc3c(F)c(-c4c(O)cccc4F)c(Cl)cc23)CC1`, the half-life in data set [4] is 3 h; in data set [5], 7.8 h. In data set [6], this compound gave an Activity above 90%.

For the origin of these results see ChEMBL document CHEMBL5523694, “Research progress on small molecule inhibitors targeting KRAS G12C with acrylamide structure and the strategies for solving KRAS inhibitor resistance” (Bioorg Med Chem, 2024).
